Measured values published in ChEMBL document CHEMBL1121442, “Synthesis and antitrypanosomal activity of some bis(4-guanylphenyl) five- and six-membered ring heterocycles” (1980).

Legend:
[1] = tested on: Mus musculus; test: Tested for antiTrypanosomal activity against Trypanosoma rhodesiense in mice at dose of 320 mg/kg expressed as mean survival time (MST) or cures; assay type: functional
[2] = tested on: Mus musculus; test: Tested for antiTrypanosomal activity against Trypanosoma rhodesiense in mice at dose of 5 mg/kg expressed as mean survival time (MST) or cures; assay type: functional
[3] = tested on: Mus musculus; test: Tested for antiTrypanosomal activity against Trypanosoma rhodesiense in mice at dose of 640 mg/kg expressed as mean survival time (MST) or cures; assay type: functional
[4] = tested on: Mus musculus; test: Tested for antiTrypanosomal activity against Trypanosoma rhodesiense in mice at dose of 80 mg/kg expressed as mean survival time (MST) or cures; assay type: functional
[5] = tested on: Mus musculus; test: Tested for antiTrypanosomal activity against Trypanosoma rhodesiense in mice at dose of 1.25 mg/kg expressed as mean survival time (MST) or cures; assay type: functional
[6] = tested on: Mus musculus; test: Tested for antiTrypanosomal activity against Trypanosoma rhodesiense in mice at dose of 2.5 mg/kg expressed as mean survival time (MST) or cures; assay type: functional
[7] = tested on: Mus musculus; test: Tested for antiTrypanosomal activity against Trypanosoma rhodesiense in mice at dose of 10 mg/kg expressed as mean survival time (MST) or cures; assay type: functional
[8] = tested on: Mus musculus; test: Tested for antiTrypanosomal activity against Trypanosoma rhodesiense in mice at dose of 160 mg/kg expressed as mean survival time (MST) or cures; assay type: functional
[9] = tested on: Mus musculus; test: Tested for antiTrypanosomal activity against Trypanosoma rhodesiense in mice at dose of 20 mg/kg expressed as mean survival time (MST) or cures; assay type: functional
[10] = tested on: Mus musculus; test: Tested for antiTrypanosomal activity against Trypanosoma rhodesiense in mice at dose of 40 mg/kg expressed as mean survival time (MST) or cures; assay type: functional
[11] = tested on: Mus musculus; test: Tested for antiTrypanosomal activity against Trypanosoma rhodesiense in mice at dose of 106 mg/kg expressed as mean survival time (MST) or cures T - toxic death; assay type: functional, organism-based; parameters: dose 106 mg/kg
[12] = tested on: Mus musculus; test: Tested for antiTrypanosomal activity against Trypanosoma rhodesiense in mice at dose of 106 mg/kg expressed as mean survival time (MST) or cures; assay type: functional
[13] = tested on: Mus musculus; test: Tested for antiTrypanosomal activity against Trypanosoma rhodesiense in mice at dose of 26.5 mg/kg expressed as mean survival time (MST) or cures; assay type: functional
[14] = tested on: Mus musculus; test: Tested for antitrypanosomal activity against trypanosoma rhodesiense in mice at dose of 424 mg/kg expressed as mean survival time (MST) or cures; assay type: functional
[15] = tested on: Mus musculus; test: Tested for antiTrypanosomal activity against Trypanosoma rhodesiense in mice at dose of 640 mg/kg expressed as mean survival time (MST) or cures, T - toxic death; assay type: functional, organism-based; parameters: dose 640 mg/kg
[16] = tested on: Mus musculus; test: Tested for antiTrypanosomal activity against Trypanosoma rhodesiense in mice at dose of 13.3 mg/kg expressed as mean survival time (MST) or cures; assay type: functional
[17] = tested on: Mus musculus; test: Tested for antiTrypanosomal activity against Trypanosoma rhodesiense in mice at dose of 212 mg/kg expressed as mean survival time (MST) or cures; assay type: functional
[18] = tested on: Mus musculus; test: Tested for antiTrypanosomal activity against Trypanosoma rhodesiense in mice at dose of 53 mg/kg expressed as mean survival time (MST) or cures; assay type: functional
[19] = tested on: Mus musculus; test: Tested for antiTrypanosomal activity by screening against Trypanosoma rhodesiense in mice at dose of 424 mg/kg expressed as mean survival time (MST) or cures T - toxic death; assay type: functional, organism-based; parameters: dose 424 mg/kg

| Structure (SMILES) | Cures [1] | Cures [2] | Cures [3] | Cures [4] | Cures [6] | Cures [7] | Cures [8] | Cures [9] | Cures [10] | other results |
| --- | --- | --- | --- | --- | --- | --- | --- | --- | --- | --- |
| N=C(N)c1ccc(/C=C/c2ccc(C(=N)N)cc2O)cc1 [HYDROXYSTILBAMIDINE] | 5 | 5 | 5 | 5 | 5 | 5 | 5 | 5 | 5 | Cures [5]: 2 |
| Cl.Cl.c1cc(-c2ccc(-c3ccc(C4=NCCCN4)cc3)nn2)ccc1C1=NCCCN1 | – | – | – | 1 | – | 1 | – | 4 | 4 | Delta MST [11]: Toxic death |
| Cl.Cl.c1cc(-c2cnc(-c3ccc(C4=NCCN4)cc3)o2)ccc1C1=NCCN1 | – | – | – | – | – | – | – | – | – | Delta MST [12]: 0.4 days; Delta MST [13]: 0.2 days; Delta MST [14]: 1.6 days |
| Cl.Cl.N=C(N)c1ccc(-c2nnc(-c3ccc(C(=N)N)cc3)o2)cc1 | – | – | – | – | – | – | – | – | – | Delta MST [8]: 0.8 days; Delta MST [10]: 0.8 days; Delta MST [15]: Toxic death |
| N=C(N)c1ccc(/C=C/c2ccc(C(=N)N)cc2)cc1 [STILBAMIDINE] | 5 | 5 | 5 | 5 | 5 | 5 | 5 | 5 | 5 | Cures [5]: 2 |
| Cl.Cl.c1cc(-c2nnc(-c3ccc(C4=NCCN4)cc3)o2)ccc1C1=NCCN1 | – | – | – | – | – | – | – | – | – | Delta MST [8]: 1 days; Delta MST [10]: 0.8 days; Delta MST [15]: Toxic death |
| Cl.Cl.N=C(N)c1ccc(-c2cnc(-c3ccc(C(=N)N)cc3)o2)cc1 | 5 | 5 | 5 | 5 | 3 | 5 | 5 | 5 | 5 | Delta MST [5]: 1.8 days |
| CC1CNC(c2ccc(-c3cnc(-c4ccc(C5=NC(C)CN5)cc4)o3)cc2)=N1.Cl.Cl (stereo not given) | – | – | – | – | – | – | – | – | – | Delta MST [12]: 5.2 days; Delta MST [16]: 1 days; Delta MST [17]: 6.8 days; Delta MST [13]: 2.2 days; Delta MST [18]: 2.4 days; Delta MST [19]: Toxic death |
